Values joined by “and” are separate entries in the source; they are usually repeats but may differ in a detail not shown here. Equal entries are not always repeated. Active and inactive are the calls of the source.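 Rule for the calls: active = compound flagged as a likely artifact in this counterscreen, with IC50 of 10 µM or lower; inactive = IC50 above 10 µM.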

The assay relates to HEK293 Gal4-VP16 luciferase reporter counterscreen, luminescence. Description: VP16-driven transactivation reporter suppression potency – cell-based, luminescence, HEK293, counter-screen for COUP-TFII inhibitor project, dose response (AID 720547).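 Note: potency for lowering the luciferase signal driven by Gal4-VP16.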 A general note: Counterscreens check selectivity or assay interference.
Consider `O=C(NC1CCCCCCC1)c1cc(COc2ccc3ncccc3c2)on1`, for which the IC50 is > 85.4 µM (inactive).

Turning to `CC1(C)CC(=O)C=C(c2ccc(-c3cnc4ccccc4c3)cc2)C1=O`, the IC50 was 12.5 µM (inactive).

As for `Nc1nc2ccccc2cc1C(=O)NCc1ccc(-c2ccccc2)cc1`, the IC50 is > 85.3 µM (inactive). Under `COc1ccc(NS(=O)(=O)c2cccc(NC(=O)c3ccc(Cl)nc3)c2)cc1` stands 73.5 µM (inactive); under `Oc1ccc(-c2n[nH]c(C(F)(F)F)c2-c2ccccc2)c(O)c1`, > 85.4 µM (inactive); under `CCN(CC)C(=O)c1oc2ccc(S(=O)(=O)N3CC(C)CC(C)C3)cc2c1C` (stereo not drawn), 72.3 µM (inactive). As to `CCOC(=O)c1c(C)[nH]c(C(=O)OCC(=O)Nc2sccc2C(N)=O)c1C`, the IC50 is 29.8 µM (inactive). Next, `CCCCOC(=O)c1[nH]c2c(c1C)C(=O)CC(c1cc(OC)c(OC)c(OC)c1)C2` (stereo not drawn): > 85.4 µM (inactive); `Cc1ccc(S(=O)(=O)CC2CSc3nc4ccccc4n32)cc1` (stereo not drawn): > 85.4 µM (inactive). Next, `CC(=O)c1cn(CCOc2ccccc2C)c2ccccc12`: > 85.4 µM (inactive); `Cc1ccc(-c2cn(-c3ccccc3)c3[n+]2CCCS3)cc1`: > 85.4 µM (inactive). As to `CC(=O)Nc1ccccc1OCC(=O)c1cc(C)n(Cc2cccs2)c1C`, the IC50 is > 85.5 µM (inactive). Under `OC[C@@H]1CN(Cc2ccc(-c3ccccc3)cc2)C[C@H](n2cnc3c(NCc4ccc(F)cc4)ncnc32)O1` stands 83.4 µM (inactive); under `Cc1cc(-n2c(C)cc(C(=O)CSc3ncnc4ccccc34)c2C)no1`, > 85.5 µM (inactive).

On to `CC1C(OC(=O)CCC(=O)NC(C)(C)CO)O[C@H]2OC3(C)CC[C@H]4[C@H](C)CCC1C24OO3` (stereo partly drawn), for which the IC50 was > 85.4 µM (inactive). Under `S=C(NCCc1ccccc1)Nc1cccc2cnccc12` stands > 85.4 µM (inactive). On to `Cc1cc(S(=O)(=O)NCc2ccncc2)c(C)cc1Br`, for which the IC50 is > 85.4 µM (inactive).

As for `Cc1ccc(S(=O)(=O)NCc2ccncc2)c(C)c1C`, the IC50 was > 85.5 µM (inactive).

Regarding `CCC1CCCCN1C(=O)c1cc(COc2ccc3ncccc3c2)on1` (stereo not drawn), the IC50 is > 85.4 µM (inactive). Next, `COc1ccc(CN(C)c2ccc(S(=O)(=O)N3CCN(C)CC3)cc2[N+](=O)[O-])cc1OC`: > 85.4 µM (inactive). Under `O=C(NCCc1cn2ccccc2n1)c1cc(COc2ccc3ncccc3c2)on1` stands 31.1 µM (inactive); under `COC(=O)C1CCCCN1C(=O)c1cc(COc2cccc3cnccc23)on1` (stereo not drawn), > 85.4 µM (inactive); under `O=C(Cc1ccc(Cl)cc1Cl)Nc1ccncc1Cl`, > 85.4 µM (inactive).

`CC(C)(C)c1ccc(-c2nnc3sc(-c4ccccn4)nn23)cc1`: the IC50 was > 85.4 µM (inactive). Under `Cc1nc2ccccc2n1Cc1ccc(Cl)cc1` stands > 85.4 µM (inactive); under `CCCc1cc(=O)n2nc(N3CCC(C(=O)N4CCN(c5ccc(OC)cc5)CC4)CC3)sc2n1`, > 85.4 µM (inactive).

For the molecule `O=S(=O)(NCC1CCCO1)c1ccc(-c2ccc(S(=O)(=O)NCC3CCCO3)cc2)cc1` (stereo not drawn), the IC50 was > 85.4 µM (inactive). For `Clc1ccc(OCCN2CCN(c3ncnc4sccc34)CC2)cc1`, the IC50 was > 85.5 µM (inactive).

Turning to `CCOC(=O)c1cnc(-n2nc(C)cc2C)nc1NC1CCCCC1`, the IC50 was 45.4 µM (inactive). Next, `Cc1nn(C)c(C)c1NC(=O)COc1ccc(Cl)cc1Br`: > 85.4 µM (inactive); `Cc1ccc(Cn2ncc3c(N4CCN(Cc5ccc(Cl)cc5)CC4)ncnc32)cc1`: > 85.4 µM (inactive); `Cc1c(C(=O)NCc2ccc(C(C)C)cc2)sc(=O)n1Cc1ccc(S(=O)(=O)N(C)C)cc1`: > 85.4 µM (inactive).

For `NC(=O)[C@H]1CC2(CC(c3cccc(NC(=O)COc4ccc(Cl)cc4)c3)=NO2)CN1C(=O)Cc1ccc([N+](=O)[O-])cc1` (stereo partly drawn), the IC50 was > 85.5 µM (inactive).

For the molecule `CC(C)OCCCNc1ncnc2c1[nH]c1ccc(F)cc12`, the IC50 was > 85.4 µM (inactive).

As for `CCCCn1c2c(c(=N)c3c1CCC3)CCC2`, the IC50 was > 85.4 µM (inactive). `COC(=O)C1=C(c2ccc(-c3ccccc3)c(F)c2)C[C@@H]2CC[C@H]1N2C(=O)N1CCCC1`: the IC50 is > 85.4 µM (inactive). `CCN1/C(=C\c2ccc3ccccc3[n+]2CC)Sc2cc(C)ccc21`: the IC50 was 53.9 µM (inactive).

Turning to `CC[C@@H](O)C[C@H]1CCC[C@@]2(C[C@@H]3OC(=O)/C=C/[C@@](C)(O)[C@@H](O)[C@H](C)[C@@H](O)[C@H](OC4CCC(N(C)C)C(C)O4)[C@@H](O)[C@](C)(O)CCCCC/C=C/[C@@H]4CC(C)(C)O[C@@]4(O)C[C@H](O2)[C@H]3C)O1` (stereo partly drawn), the IC50 is 37 µM (inactive). Take `O=C(c1cccs1)C1CCN(c2ncnc3sccc23)CC1`: the IC50 was > 85.4 µM (inactive). Turning to `CC(C)(C)c1ccc(/C=N/Nc2ccc(C(=O)O)cc2)cc1`, the IC50 was > 85.4 µM (inactive). Take `NC(=O)c1ccsc1NC(=O)COC(=O)Cc1cccc2ccccc12`: the IC50 is > 85.4 µM (inactive). Next, `Clc1ccc(-n2ncc3c(NCCN4CCOCC4)ncnc32)cc1`: > 85.4 µM (inactive). Next, `c1ccc(CNc2ncnc3ccccc23)cc1`: > 85.4 µM (inactive) and > 85.3 µM (inactive); `Cc1ccc(-n2nc3c(=O)n(C(C)C(=O)NCCC4=CCCCC4)nc(C)c3c2C)cc1` (stereo not drawn): > 28.5 µM (inactive). Next, `Cc1cccc(Cl)c1NC(=O)N1CCCN(c2nc3ccc(Cl)cc3s2)CC1`: > 85.4 µM (inactive). For `Cc1cccc2cc(-c3ccccc3)c(-c3ccccc3)c[n+]12`, the IC50 was > 85.4 µM (inactive). Take `C[C@@H]1C[C@@H]([C@H](O)CC2CC(=O)NC(=O)C2)C(=O)[C@@H](C)C1`: the IC50 was > 85.4 µM (inactive).

On to `N=c1c2c(n(Cc3ccc(Cl)cc3)c3c1CCC3)CCC2`, for which the IC50 is 89 µM (inactive).

As for `CCOc1ccc(S(=O)(=O)NCc2ccncc2)cc1`, the IC50 is > 85.4 µM (inactive). Next, `Cc1cc(N2CCN(c3nc4ccccc4s3)CC2)n2ncnc2n1`: > 85.4 µM (inactive); `CCOc1cccc(/C=N/NC(=S)Nc2ccccc2[N+](=O)[O-])c1O`: 20.4 µM (inactive). Under `Cn1nc(CC(=O)Nc2ccc(N3CCN(C(=O)OC(C)(C)C)CC3)cc2)c2ccccc2c1=O` stands 81.2 µM (inactive); under `O=c1[nH]c(O)c(N=Nc2ccc3c(c2)OCCO3)c(=O)[nH]1`, 40.4 µM (inactive).

As usually defined, the IC50 is the concentration that inhibits the measured activity by half.

These data come from PubChem BioAssay AID720547 (The Scripps Research Institute Molecular Screening Center, 2013).
